Source: PubChem BioAssay (NCI)
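Step 1: Grow cells in 96-well plates. Step 2: Expose to compound for 48 hours at 5 concentrations. Step 3: Interpolate endpoints linearly; if unreached, use highest concentration. GI50 marks 50% less growth. TGI marks complete inhibition of growth.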

What was measured:
Test in all cases: DTP human tumour cell line panel, 48 h
A498 renal = system: A498 renal
MALME-3M melanoma = system: MALME-3M melanoma
SK-MEL-2 melanoma = system: SK-MEL-2 melanoma
HCC-2998 colon = system: HCC-2998 colon
OVCAR-3 ovarian = system: OVCAR-3 ovarian
MDA-MB-435 = system: MDA-MB-435
OVCAR-5 ovarian = system: OVCAR-5 ovarian
KM12 colon = system: KM12 colon
NCI-H522 lung = system: NCI-H522 lung
HCT-15 colon = system: HCT-15 colon
RXF 393 renal = system: RXF 393 renal
SW-620 colon = system: SW-620 colon
MCF7 breast = system: MCF7 breast
SNB-75 CNS = system: SNB-75 CNS
U251 CNS = system: U251 CNS
M14 melanoma = system: M14 melanoma
EKVX NSCLC = system: EKVX NSCLC
DU-145 prostate = system: DU-145 prostate
HOP-92 NSCLC = system: HOP-92 NSCLC
A549 NSCLC = system: A549 NSCLC
IGROV1 ovarian = system: IGROV1 ovarian
MDA-MB-231 breast = system: MDA-MB-231 breast
MOLT-4 leukemia = system: MOLT-4 leukemia
SNB-19 CNS = system: SNB-19 CNS
OVCAR-8 ovarian = system: OVCAR-8 ovarian
HOP-62 NSCLC = system: HOP-62 NSCLC
TK-10 renal = system: TK-10 renal
SN12C renal = system: SN12C renal
BT-549 breast = system: BT-549 breast
HL-60(TB) leukemia = system: HL-60(TB) leukemia
T-47D breast = system: T-47D breast
LOX IMVI melanoma = system: LOX IMVI melanoma
786-0 renal = system: 786-0 renal
SK-MEL-5 melanoma = system: SK-MEL-5 melanoma
PC-3 prostate = system: PC-3 prostate
COLO 205 colon = system: COLO 205 colon
NCI-H23 lung = system: NCI-H23 lung
HS 578T breast = system: HS 578T breast
RPMI-8226 leukemia = system: RPMI-8226 leukemia
SF-539 CNS = system: SF-539 CNS
ACHN renal = system: ACHN renal
UACC-62 melanoma = system: UACC-62 melanoma
NCI-H226 lung = system: NCI-H226 lung
K-562 leukemia = system: K-562 leukemia
CAKI-1 renal = system: CAKI-1 renal
UO-31 renal = system: UO-31 renal
SF-295 CNS = system: SF-295 CNS
HT29 colon = system: HT29 colon
CCRF-CEM leukemia = system: CCRF-CEM leukemia
SF-268 CNS = system: SF-268 CNS
SR leukemia = system: SR leukemia
SK-OV-3 ovarian = system: SK-OV-3 ovarian
UACC-257 melanoma = system: UACC-257 melanoma
SK-MEL-28 melanoma = system: SK-MEL-28 melanoma
NCI/ADR-RES ovarian = system: NCI/ADR-RES ovarian
HCT-116 colon = system: HCT-116 colon
NCI-H460 lung = system: NCI-H460 lung
OVCAR-4 ovarian = system: OVCAR-4 ovarian

COc1cccc(CC(C)=C(c2ccc(OCCN(C)C)cc2)c2ccc(OCCN(C)C)cc2)c1
GI50 (A498 renal): 4.79 µM | TGI (A498 renal): 9.63 µM | GI50 (MALME-3M melanoma): 564 nM | TGI (MALME-3M melanoma): 1050 nM | GI50 (SK-MEL-2 melanoma): 5.19 µM | TGI (SK-MEL-2 melanoma): 10.9 µM | GI50 (HCC-2998 colon): 895 nM | TGI (HCC-2998 colon): 4.92 µM | GI50 (OVCAR-3 ovarian): 1180 nM | TGI (OVCAR-3 ovarian): 3.42 µM | GI50 (MDA-MB-435): 682 nM | TGI (MDA-MB-435): 1370 nM | GI50 (OVCAR-5 ovarian): 3.24 µM | TGI (OVCAR-5 ovarian): 7.35 µM | GI50 (KM12 colon): 4.08 µM | TGI (KM12 colon): 8.77 µM | GI50 (NCI-H522 lung): 2860 nM | TGI (NCI-H522 lung): 7.95 µM | GI50 (HCT-15 colon): 974 nM | TGI (HCT-15 colon): 3.6 µM | GI50 (RXF 393 renal): 779 nM | TGI (RXF 393 renal): 4.44 µM | GI50 (SW-620 colon): 735 nM | TGI (SW-620 colon): 1820 nM | GI50 (MCF7 breast): 926 nM | TGI (MCF7 breast): 3.85 µM | GI50 (SNB-75 CNS): 1460 nM | TGI (SNB-75 CNS): 6.28 µM | GI50 (U251 CNS): 903 nM | TGI (U251 CNS): 2420 nM | GI50 (M14 melanoma): 612 nM | TGI (M14 melanoma): 1200 nM | GI50 (EKVX NSCLC): 4.09 µM | TGI (EKVX NSCLC): 8.52 µM | GI50 (DU-145 prostate): 3.86 µM | TGI (DU-145 prostate): 8.26 µM | GI50 (HOP-92 NSCLC): 865 nM | TGI (HOP-92 NSCLC): 4.48 µM | GI50 (A549 NSCLC): 3.59 µM | TGI (A549 NSCLC): 8.25 µM | GI50 (IGROV1 ovarian): 3.98 µM | TGI (IGROV1 ovarian): 8.73 µM | GI50 (MDA-MB-231 breast): 1100 nM | TGI (MDA-MB-231 breast): 4.69 µM | GI50 (MOLT-4 leukemia): 834 nM | TGI (MOLT-4 leukemia): 2390 nM | GI50 (SNB-19 CNS): 4.38 µM | TGI (SNB-19 CNS): 8.99 µM | GI50 (OVCAR-8 ovarian): 2040 nM | TGI (OVCAR-8 ovarian): 6.71 µM | GI50 (HOP-62 NSCLC): 2240 nM | TGI (HOP-62 NSCLC): 6.92 µM | GI50 (TK-10 renal): 5.43 µM | TGI (TK-10 renal): 10.3 µM | GI50 (SN12C renal): 4.19 µM | TGI (SN12C renal): 8.69 µM | GI50 (BT-549 breast): 4.29 µM | TGI (BT-549 breast): 8.88 µM | GI50 (HL-60(TB) leukemia): 667 nM | TGI (HL-60(TB) leukemia): 1340 nM | GI50 (T-47D breast): 681 nM | TGI (T-47D breast): 1770 nM | GI50 (LOX IMVI melanoma): 604 nM | TGI (LOX IMVI melanoma): 1160 nM | GI50 (786-0 renal): 606 nM | TGI (786-0 renal): 1270 nM | GI50 (SK-MEL-5 melanoma): 4.75 µM | TGI (SK-MEL-5 melanoma): 9.26 µM | GI50 (PC-3 prostate): 1950 nM | TGI (PC-3 prostate): 6.82 µM | GI50 (COLO 205 colon): 626 nM | TGI (COLO 205 colon): 1310 nM | GI50 (NCI-H23 lung): 4.42 µM | TGI (NCI-H23 lung): 9.24 µM | GI50 (HS 578T breast): 3.58 µM | TGI (HS 578T breast): 8.9 µM | GI50 (RPMI-8226 leukemia): 842 nM | TGI (RPMI-8226 leukemia): 2240 nM | GI50 (SF-539 CNS): 589 nM | TGI (SF-539 CNS): 1100 nM | GI50 (ACHN renal): 1040 nM | TGI (ACHN renal): 3.35 µM | GI50 (UACC-62 melanoma): 689 nM | TGI (UACC-62 melanoma): 1500 nM | GI50 (NCI-H226 lung): 4.8 µM | TGI (NCI-H226 lung): 10.4 µM | GI50 (K-562 leukemia): 614 nM | TGI (K-562 leukemia): 1770 nM | GI50 (CAKI-1 renal): 3.96 µM | TGI (CAKI-1 renal): 8.27 µM | GI50 (UO-31 renal): 3.55 µM | TGI (UO-31 renal): 7.57 µM | GI50 (SF-295 CNS): 4.07 µM | TGI (SF-295 CNS): 8.62 µM | GI50 (HT29 colon): 706 nM | TGI (HT29 colon): 1910 nM | GI50 (CCRF-CEM leukemia): 693 nM | TGI (CCRF-CEM leukemia): 2230 nM | GI50 (SF-268 CNS): 4.03 µM | TGI (SF-268 CNS): 8.69 µM | GI50 (SR leukemia): 787 nM | TGI (SR leukemia): 2220 nM | GI50 (SK-OV-3 ovarian): 5.66 µM | TGI (SK-OV-3 ovarian): 10.4 µM | GI50 (UACC-257 melanoma): 4.06 µM | TGI (UACC-257 melanoma): 8.8 µM | GI50 (SK-MEL-28 melanoma): 602 nM | TGI (SK-MEL-28 melanoma): 1100 nM | GI50 (NCI/ADR-RES ovarian): 3.76 µM | TGI (NCI/ADR-RES ovarian): 8.32 µM | GI50 (HCT-116 colon): 644 nM | TGI (HCT-116 colon): 1500 nM | GI50 (NCI-H460 lung): 2830 nM | TGI (NCI-H460 lung): 7.38 µM | GI50 (OVCAR-4 ovarian): 3.53 µM | TGI (OVCAR-4 ovarian): 8.16 µM
